The text below walks through data of patent US20220340547A1, “INDOLE DERIVATIVE-CONTAINING INHIBITOR, PREPARATION METHOD THEREFOR AND APPLICATION THEREOF” (Shanghi Hansoh Biosoh Biomedical Co., Ltd., priority 2019, published 2022).

Assay [1] has as its target Ba/F3 EGFR-D770-N771ins_SVD (Homo sapiens, UniProt P00533, DUP768-770, cells depend on it). In words: Proliferation of Ba/F3 EGFR mutant cell line (CellTiter-Glo). Format: cell-based, mouse. The note with it: 72 h to 144 h, read-out: Ba/F3 EGFR-D770-N771ins_SVD IC50. As to the method:
Determination of the Inhibitory Effect of the Compound of the Present Invention on the Proliferation of Ba/F3 EGFR Mutant Cell Line and A431 Cell Line
(§1) Experimental objective: The objective of this test example is to determine the inhibitory effect of the compound on the proliferation of Ba/F3 EGFR mutant cell line and A431 cell line
(§2) Experimental instruments: Microplate reader (BioTek Synergy H1), pipette (Eppendorf & Rainin).
Ba/F3 EGFR mutant cells were cultured, and harvested after reaching a suitable density. The cells were adjusted to an appropriate cell concentration with the complete medium. The cell suspension were spread on a 96-well plate (90 μL per well), and the plate was placed in a 37° C., 5% CO2 incubator overnight to let the cells adhere to the wall. Solutions of the compound at different concentrations were formulated with DMSO and culture medium. Solvent control was set. […] CellTiter-Glo solution was added and mixed well by shaking, and the plate was incubated in the dark for 10 minutes. The values were measured by BioTek Synergy H1 microplate reader.
(§3) Experimental Data Processing Method:
(§4) The inhibition rate was calculated using the […] signal value. The concentration and inhibition rate were fitted to a nonlinear regression curve by Graphpad Prism software to obtain the IC50 value.

A further assay addresses EGFR D770_N771insNPG (Homo sapiens, UniProt P00533, INS770NPG). Briefly: TR-FRET inhibition of kinase activity of EGFR exon 20 insertion mutation. Format: biochemical.
Text: Determination of the Inhibitory Effect of the Compound of the Present Invention on the Kinase Activity of EGFR Exon 20 Insertion Mutation
Experimental objective: The objective of this test example is to determine the inhibitory effect of the compound on the kinase activity of EGFR exon 20 insertion mutation.
Experimental process: The experiment applied the TR-FRET (time-resolved fluorescence resonance energy transfer) method to study the inhibitory effect of the compound on the kinase activity of EGFR exon 20 insertion mutation. The experiment was carried out in a 384-well plate. Experimental buffer (50 mM HEPES, 1 mM EGTA, 10 mM MgCl2, 2 mM DTT, 0.01% Tween-20) was formulated. The compound was diluted in gradient to different concentrations with the experimental buffer. 2.5 μL of the solution was added to each well of the 384-well plate. 2.5 μL of diluted EGFR kinase solution (0.001-0.5 nM) was added, and the plate was incubated at room temperature for 10 minutes. 5 μL of ULight-poly GT/ATP mixed solution was added, and the plate was incubated at room temperature for 30 to 60 minutes. 5 μL of EDTA stop solution and 5 μL of Eu-labeled antibody detection solution were added, and the plate was incubated at room temperature for 1 hour.
as §3
The concentration and inhibition rate were fitted to a nonlinear regression curve by Graphpad Prism software to obtain the IC50 value.

The subject of the next assay is A431 cell line. Briefly: Proliferation of A431 cell line (CellTiter-Glo). The note with it: Homo sapiens, A-431, 72 h. The class given is cell-based. As to the method: Test Example 3. Determination of the Inhibitory Effect of the Compound of the Present Invention on the Proliferation of Ba/F3 EGFR Mutant Cell Line and A431 Cell Line
as §1, §2
A431 cells were cultured, and harvested after reaching a suitable density. The cells were adjusted to an appropriate cell concentration with the complete medium. The cell suspension were spread on a 96-well plate (90 μL per well), and the plate was placed in a 37° C., 5% CO2 incubator overnight to let the cells adhere to the wall. Solutions of the compound at different concentrations were formulated with DMSO and culture medium. Solvent control was set. The solution of the compound was added to the 96-well plate ([…]), and the plate was incubated in the 37° C., 5% CO2 incubator for 72 h. CellTiter-Glo solution was added and mixed well by shaking, and the plate was incubated in the dark for 10 minutes. The values were measured by BioTek Synergy H1 microplate reader.
as §3, §4

EGFR D770_N771insNPG, sequence (P00533 with tags, fused parts or gaps INS770NPG limits assumed): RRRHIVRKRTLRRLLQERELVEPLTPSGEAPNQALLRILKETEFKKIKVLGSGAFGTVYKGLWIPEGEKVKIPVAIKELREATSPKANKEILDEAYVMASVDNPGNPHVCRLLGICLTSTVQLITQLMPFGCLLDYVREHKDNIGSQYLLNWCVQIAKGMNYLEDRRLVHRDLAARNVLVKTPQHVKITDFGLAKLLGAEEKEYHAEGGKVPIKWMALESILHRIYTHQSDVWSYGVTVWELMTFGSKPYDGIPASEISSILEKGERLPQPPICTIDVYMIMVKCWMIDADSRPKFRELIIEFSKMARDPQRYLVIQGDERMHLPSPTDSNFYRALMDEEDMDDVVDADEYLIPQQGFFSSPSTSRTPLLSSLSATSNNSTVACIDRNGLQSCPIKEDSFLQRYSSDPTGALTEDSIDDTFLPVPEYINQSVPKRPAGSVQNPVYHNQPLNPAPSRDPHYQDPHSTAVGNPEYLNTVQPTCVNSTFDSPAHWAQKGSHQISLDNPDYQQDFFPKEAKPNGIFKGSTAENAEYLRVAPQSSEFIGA
Ba/F3 EGFR-D770-N771ins_SVD, sequence (P00533 with tags, fused parts or gaps DUP768-770): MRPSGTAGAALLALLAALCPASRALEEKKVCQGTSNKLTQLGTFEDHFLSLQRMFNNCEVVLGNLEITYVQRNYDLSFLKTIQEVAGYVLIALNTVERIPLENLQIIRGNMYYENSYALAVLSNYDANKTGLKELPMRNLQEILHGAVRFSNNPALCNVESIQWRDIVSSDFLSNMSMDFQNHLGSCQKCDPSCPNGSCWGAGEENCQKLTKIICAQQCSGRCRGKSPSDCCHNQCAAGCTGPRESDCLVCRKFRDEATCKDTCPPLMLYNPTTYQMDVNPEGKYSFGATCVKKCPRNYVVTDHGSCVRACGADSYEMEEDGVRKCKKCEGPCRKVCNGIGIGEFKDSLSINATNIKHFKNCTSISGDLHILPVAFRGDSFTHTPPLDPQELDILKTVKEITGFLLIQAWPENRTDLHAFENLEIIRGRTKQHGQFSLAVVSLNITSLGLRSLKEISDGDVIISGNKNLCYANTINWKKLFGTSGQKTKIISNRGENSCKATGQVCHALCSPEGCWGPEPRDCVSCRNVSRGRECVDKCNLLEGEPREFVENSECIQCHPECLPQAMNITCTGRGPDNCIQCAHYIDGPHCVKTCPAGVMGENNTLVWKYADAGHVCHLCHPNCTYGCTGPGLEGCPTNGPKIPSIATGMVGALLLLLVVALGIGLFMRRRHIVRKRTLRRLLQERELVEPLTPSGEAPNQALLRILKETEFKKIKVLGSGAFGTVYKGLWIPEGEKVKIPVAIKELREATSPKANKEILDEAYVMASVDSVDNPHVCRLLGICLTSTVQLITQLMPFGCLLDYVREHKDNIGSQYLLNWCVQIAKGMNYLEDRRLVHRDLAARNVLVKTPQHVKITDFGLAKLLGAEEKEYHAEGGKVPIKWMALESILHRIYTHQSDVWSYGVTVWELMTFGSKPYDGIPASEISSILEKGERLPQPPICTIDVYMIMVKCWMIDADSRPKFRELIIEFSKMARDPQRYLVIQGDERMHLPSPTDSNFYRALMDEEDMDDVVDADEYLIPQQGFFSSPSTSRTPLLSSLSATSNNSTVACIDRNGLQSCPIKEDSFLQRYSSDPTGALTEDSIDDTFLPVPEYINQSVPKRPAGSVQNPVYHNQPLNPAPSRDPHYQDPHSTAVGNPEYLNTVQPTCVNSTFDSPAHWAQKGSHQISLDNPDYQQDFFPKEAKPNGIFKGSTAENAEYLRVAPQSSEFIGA

In the case of `C=CC(=O)Nc1cc(Nc2ncc(C#N)c(-c3cn(C4CC4)c4cc(F)ccc34)n2)c(OC)cc1N(C)CCN(C)C` [Example 114, N-(5-((5-Cyano-4-(1-cyclopropyl-6-fluoro-1H-indol-3-yl)pyrimidin-2-yl)amino)-2-((2-(dimethylamino)ethyl)(methyl)amino)-4-methoxyphenyl)acrylamide], the GI50 in assay [1] is 42.5 nM. Moreover, the midpoint of inhibition against EGFR D770_N771insNPG, the IC50, lay at 0.61 nM.
In the case of `C=CC(=O)Nc1cc(Nc2ncc(C(=O)OC(C)C)c(-c3cn(C)c4ccccc34)n2)c(OC)cc1N1C[C@H]2CN(C)C[C@H]2C1` [Example 63, Isopropyl 2-((5-acrylamido-2-methoxy-4-((3aR,6aS)-5-methylhexahydropyrrolo[3,4-c]pyrrol-2(1H)-yl)phenyl)amino)-4-(1-methyl-1H-indol-3-yl)pyrimidine-5-carboxylate], half-maximal inhibition against EGFR D770_N771insNPG (IC50) required 0.62 nM.
For the compound `C=CC(=O)Nc1cc(Nc2ncc(-c3ccc(F)cc3F)c(-c3cn(C4CC4)c4ccccc34)n2)c(OC)cc1N1C[C@H]2CN(C)C[C@H]2C1` [Example 69, N-(5-((4-(1-Cyclopropyl-1H-indol-3-yl)-5-(2,4-difluorophenyl)pyrimidin-2-yl)amino)-4-methoxy-2-((3aR,6aS)-5-methylhexahydropyrrolo[3,4-c]pyrrol-2(1H)-yl)phenyl)acrylamide], the GI50 in assay [1] was found to be 40 nM.
Turning to `C=CC(=O)Nc1cc(Nc2ncc(C(=O)OC(C)C)c(-c3cn(C)c4ccccc34)n2)c(OC)cc1N1C[C@H]2CN(C)C[C@H]2C1` [Example 24, Isopropyl 2-((5-acrylamido-2-methoxy-4-(5-methylhexahydropyrrolo[3,4-c]pyrrol-2(1H)-yl)phenyl)amino)-4-(1-methyl-1H-indol-3-yl)pyrimidine-5-carboxylate], the GI50 in assay [1] stood at 15 nM. In addition, in the assay with A431 cell line, the half-inhibitory concentration (IC50) turned out to be 124 nM.
The compound `C=CC(=O)Nc1cc(Nc2ncc(C#N)c(-c3cn(C4CC4)c4ccccc34)n2)c(OC)cc1N1C[C@@H]2CCN(C)[C@@H]2C1` [Example 110, N-(5-((5-Cyano-4-(1-cyclopropyl-1H-indol-3-yl)pyrimidin-2-yl)amino)-4-methoxy-2-((3aS,6aS)-1-methylhexahydropyrrolo[3,4-b]pyrrol-5(1H)-yl)phenyl)acrylamide] had an IC50 against EGFR D770_N771insNPG of 0.53 nM.
Consider `C=CC(=O)Nc1cc(Nc2ncc(-c3cnn(C)c3)c(-c3cn(C4CC4)c4ccccc34)n2)c(OC)cc1N(C)CCN(C)C` [Example 85, N-(5-((4-(1-Cyclopropyl-1H-indol-3-yl)-5-(1-methyl-1H-pyrazol-4-yl)pyrimidin-2-yl)amino)-2-((2-(dimethylamino)ethyl)(methyl)amino)-4-methoxyphenyl)acrylamide], for which, in assay [1], the GI50 was found to be 17.4 nM. On EGFR D770_N771insNPG, this compound yielded an IC50 of 0.27 nM.
In the case of `C=CC(=O)Nc1cc(Nc2ncc(C#N)c(-c3cn(C4CC4)c4c(OC)cccc34)n2)c(OC)cc1N(C)CCN(C)C` [Example 119, N-(5-((5-Cyano-4-(1-cyclopropyl-7-methoxy-1H-indol-3-yl)pyrimidin-2-yl)amino)-2-((2-(dimethylamino)ethyl)(methyl)amino)-4-methoxyphenyl)acrylamide], the GI50 in assay [1] is 45.4 nM. At EGFR D770_N771insNPG, this compound had an IC50 of 0.49 nM.
Compound `C=CC(=O)Nc1cc(Nc2ncc(C#N)c(-c3cn(C4CC4)c4ncccc34)n2)c(OC)cc1N(C)CCN(C)C` [Example 139, N-(5-((5-Cyano-4-(1-cyclopropyl-1H-pyrrolo[2,3-b]pyridin-3-yl)pyrimidin-2-yl)amino)-2-((2-(dimethylamino)ethyl)(methyl)amino)-4-methoxyphenyl)acrylamide] returned an IC50 on EGFR D770_N771insNPG of 0.68 nM.
As to `C=CC(=O)Nc1cc(Nc2nccc(-c3cn(C)c4ccccc34)n2)c(OC)cc1N(C)CCN(C)C` [AZD9291, osimertinib, reference compound], the 50% inhibitory concentration (IC50) with A431 cell line turned out to be […].
For `C=CC(=O)Nc1cc(Nc2ncc(C#N)c(-c3cn(C4CC4)c4ccccc34)n2)c(OC)cc1OCCN(C)C` [Example 113, N-(5-((5-Cyano-4-(1-cyclopropyl-1H-indol-3-yl)pyrimidin-2-yl)amino)-2-(2-(dimethylamino)ethoxy)-4-methoxyphenyl)acrylamide], the 50% inhibitory concentration (IC50) on EGFR D770_N771insNPG turned out to be 0.7 nM.
Turning to `C=CC(=O)Nc1cc(Nc2ncc(-c3cnn(C)c3)c(-c3cn(C4CC4)c4ccccc34)n2)c(OC)cc1N1C[C@@H]2CCN(C)[C@@H]2C1` [Example 65, N-(5-((4-(1-Cyclopropyl-1H-indol-3-yl)-5-(1-methyl-1H-pyrazol-4-yl)pyrimidin-2-yl)amino)-4-methoxy-2-((3aS,6aS)-1-methylhexahydropyrrolo[3,4-b]pyrrol-5(1H)-yl)phenyl)acrylamide], in assay [1], the GI50 amounted to 15.1 nM. In addition, the midpoint of inhibition at EGFR D770_N771insNPG, the IC50, lay at 0.29 nM.
On the same counts, the results for `C=CC(=O)Nc1cc(Nc2ncc(-c3cnn(C)c3)c(-c3cn(C4CC4)c4ccccc34)n2)c(OC)cc1N1C[C@H]2CN(C)C[C@H]2C1` [Example 43, N-(5-((4-(1-Cyclopropyl-1H-indol-3-yl)-5-(1-methyl-1H-pyrazol-4-yl)pyrimidin-2-yl)amino)-4-methoxy-2-((3aR,6aS)-5-methylhexahydropyrrolo[3,4-c]pyrrol-2(1H)-yl)phenyl)acrylamide] are 21 nM and 0.29 nM.
In turn, `C=CC(=O)Nc1cc(Nc2ncc(C#N)c(-c3cn(C4CC4)c4ccccc34)n2)c(OC)cc1N1CC[C@H](N(C)C)C1` [Example 77, (S)—N-(5-((5-cyano-4-(1-cyclopropyl-1H-indol-3-yl)pyrimidin-2-yl)amino)-2-(3-(dimethylamino)pyrrolidin-1-yl)-4-methoxyphenyl)acrylamide] had an IC50 at EGFR D770_N771insNPG of 0.91 nM.
The same measure, in the same setting: the same measure for `C=CC(=O)Nc1cc(Nc2ncc(C#N)c(-c3cn(C4CC4)c4ccccc34)n2)c(OC)cc1N1CC(N(C)C)C1` [Example 74, N-(5-((5-Cyano-4-(1-cyclopropyl-1H-indol-3-yl)pyrimidin-2-yl)amino)-2-(3-(dimethylamino)azetidin-1-yl)-4-methoxyphenyl)acrylamide]: 0.64 nM; for `C=CC(=O)Nc1cc(Nc2ncc(C(=O)OC(C)C)c(-c3cn(C)c4ccccc34)n2)c(OC)cc1N1CC2(CN(C)C2)C1` [Example 26, Isopropyl 2-((5-acrylamido-2-methoxy-4-(6-methyl-2,6-diazaspiro[3.3]heptan-2-yl)phenyl)amino)-4-(1-methyl-1H-indol-3-yl)pyrimidine-5-carboxylate]: 0.36 nM.
As to `C=CC(=O)Nc1cc(Nc2ncc(C#N)c(-c3cn(C4CC4)c4cc(OC)ccc34)n2)c(OC)cc1N(C)CCN(C)C` [Example 112, N-(5-((5-Cyano-4-(1-cyclopropyl-6-methoxy-1H-indol-3-yl)pyrimidin-2-yl)amino)-2-((2-(dimethylamino)ethyl)(methyl)amino)-4-methoxyphenyl)acrylamide], the GI50 in assay [1] is 26.7 nM. The compound also gave an IC50 against EGFR D770_N771insNPG of 0.17 nM.
For the compound `C=CC(=O)Nc1cc(Nc2ncc(-c3ccnn3C)c(-c3cn(C4CC4)c4ccccc34)n2)c(OC)cc1N1C[C@H]2CN(C)C[C@H]2C1` [Example 70, N-(5-((4-(1-Cyclopropyl-1H-indol-3-yl)-5-(1-methyl-1H-pyrazol-5-yl)pyrimidin-2-yl)amino)-4-methoxy-2-((3aR,6aS)-5-methylhexahydropyrrolo[3,4-c]pyrrol-2(1H)-yl)phenyl)acrylamide], the GI50 in assay [1] came to 47.4 nM.
`C=CC(=O)Nc1cc(Nc2ncc(-c3cnn(C)c3)c(-c3cn(C4CC4)c4ccccc34)n2)c(OC)cc1N1C[C@H]2CCN(C)[C@H]2C1` [Example 68]: the GI50 in assay [1] is 15.4 nM. In addition, at EGFR D770_N771insNPG, the midpoint of inhibition, the IC50, lay at 0.17 nM.
